Consider one molecule from patent US6706716B2, “Compounds specific for the human α1d adrenergic receptor and uses thereof” (Synaptic Pharmaceutical Corporation, priority 1998, dated 2004).

For this assay, the target named is T1, α1A adrenoceptor (Rattus norvegicus, UniProt P43140).
T1 construct: from tissue; host or cells: rat epididymal vas deferens
T1 sequence (P43140 1-466): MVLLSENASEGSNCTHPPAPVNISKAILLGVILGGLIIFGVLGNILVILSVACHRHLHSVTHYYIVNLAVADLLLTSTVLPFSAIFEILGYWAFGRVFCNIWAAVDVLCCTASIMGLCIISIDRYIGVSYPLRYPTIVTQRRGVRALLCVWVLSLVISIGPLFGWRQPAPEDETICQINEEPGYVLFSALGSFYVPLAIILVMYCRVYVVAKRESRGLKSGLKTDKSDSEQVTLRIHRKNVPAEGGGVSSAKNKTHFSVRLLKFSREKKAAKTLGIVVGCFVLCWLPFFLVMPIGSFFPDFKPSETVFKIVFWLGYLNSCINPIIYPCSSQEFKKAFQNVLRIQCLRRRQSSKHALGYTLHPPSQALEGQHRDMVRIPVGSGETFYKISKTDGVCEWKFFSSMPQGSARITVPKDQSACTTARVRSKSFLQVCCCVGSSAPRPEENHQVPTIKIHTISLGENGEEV
The assay is described as follows: Isolated tissue functional assay, epididymal vas deferens (phenylephrine induced contraction). As to the method:
The functional in vitro activity of Compound 7 was characterized in several pharmacologically defined α1 adrenoceptor subtype isolated tissue assays (Aboud et al., 1993). (Rat epididymal vas deferens was used to determine α1A functional responses, spleen was used for α1B responses, and thoracic aorta was used for α1D responses.) Experiments were carried out according to the method of Deng et al., 1996, with minor buffer and tissue setup tension modifications. Krebs additionally contained 0.1 μM desipramine and 10 μM corticosterone to block neuronal and extra neuronal uptake, respectively, and 0.3 μM idazoxan to eliminate α2 mediated responses. Aorta and vas deferens strips were set at 0.5 g resting tension, and the splenic preparations were tensioned to 1 g. All preparations were equilibrated for 1 hr before the addition of drugs.
Additionally, its antagonist potency was determined by its ability to antagonize phenylephrine (PE) induced contraction in each of these preparations. The degree of shift of the PE agonist dose response-curve in the presence of Compound 7 was measured and pKB values were calculated (mean±s.e.m.).

Take `O=C1CC2(CCCC2)CC(=O)N1CCN1CCN(c2cc(F)c(F)cc2F)CC1` [Compound 7, 8-{2-[4-(2,4,5-Trifluorophenyl)piperazin-1-yl]ethyl}-8-azaspiro[4.5]decane-7,9-dione]: the agonist activity entry (concentrations up to 10 μM, rat vas deferens (α1A model)) is on record as “failed to produce agonist activity”. Also, where the note is “rat epididymal vas deferens (α1A), mean±s.e.m., read-out: pKB (antagonism of phenylephrine induced contraction) (converted)”, the Kb is 6.31 µM. For the same molecule, the “fold less potent than in the aorta” value (vas deferens versus aorta) was “approximately 2000 fold”.
